Patent US8435975B2, “Steroidal esters of 17-oximino-5-androsten-3beta-ol” (Council of Scientific & Industrial Research, priority 2007, dated 2013)
Where “and” joins values, the source holds several entries; their conditions need not be identical. Identical values can stand only once. Entries after “also recorded” stand apart in the source; their conditions may differ.

How the values were obtained:
[1] = tested on: human prostate cancer cell line (DU-145); assay: Growth inhibitory activity assay (MTT assay), in vitro antiproliferative activity; assay type: cell-based; conditions: DU-145 cells; for % growth inhibition (mean ± SEM) / inhibition at 0.01 µg/mL / inhibition at 0.5 µg/mL / inhibition at 1 µg/mL / inhibition at 2 µg/mL / inhibition at 5 µg/mL: 48 hr; for antiproliferative activity (in words): 0.01-5.0 μg/ml; for inhibition at 0.01 µg/mL / inhibition at 0.5 µg/mL / inhibition at 1 µg/mL / inhibition at 2 µg/mL / inhibition at 5 µg/mL: Homo sapiens, DU-145, 48 h, read-out: % growth inhibition (mean ± SEM)
Description: 1) In Vitro Antiproliferative Activity Against Human Prostate Cancer Cell Line (DU-145)
Compounds were screened for antiproliferative activity on human prostate cell line DU-145 at National Centre of Human Genome Studies and Research. Panjab University, Chandigarh. All the compounds (10 to 16), Finasteride and starting material (9) were tested at five different concentrations: 0.01, 0.5, 1.0, 2.0, and 5.0 μg/ml. Finasteride was the positive control in this growth inhibitory assay.
Growth Inhibitory Activity Assay (MTT Assay)
We investigated the effect of newly synthesized compounds on cell growth inhibition using MTT assay. This assay quantifies the viable cells by observing the reduction of tetrazolium salt, MTT to formazan crystals by the live cells. Based on the absorbance of the cell sample after the test is carried out, cell viable can be measured [Loveland, B. E.; Jones, T. G.; Mackay. I. R.; Vaillant, F.; Wang, Z. X.; Hertzog, P. J. Biochem. International 1992, 27, 501 and Wright, S. A.; Thomas, L. N.; Douglas, R. C.; Lazier, C. B.; Rittmaster, R. S. J. Clin. Invest. 1996, 98, 2558]. Cells were cultured at a density of 5×10^3 cells/well in 96 well plates at 37° C. in 5.0% CO2 atmosphere and were allowed to attach for 24 hr. The cells were treated in triplicate with graded concentration of sample and reference drug Finasteride at 37° C. for 48 hr. A 20 μl aliquot of MTT solution was added directly to all the appropriate wells. Following 4 hr of incubation at […], the media was removed and formazan crystals, which results from the reduction of MTT by active cell were dissolved in 100 μl DMSO and vigorously mixed to dissolve the reacted dye. The absorbance of each well was read on Elisa plate reader (Merck) at 570 nm. The spectrometer was calibrated to zero absorbance using culture medium without cells. The relative cell viability (%) related to control well containing cell culture medium without drug was calculated by [A]test/[A]control×100. % Growth Inhibition=[OD]control−[OD]test/[OD]control×100 Results: […]

5α-reductase = assay: In vivo effect on serum testosterone level (5α-reductase inhibitory activity), ELISA; parameters: species or system Sprague Dawley rats; conditions: for Serum levels of Testosterone, T: Sprague Dawley male rats, intraperitoneal, Finasteride 40 mg/kg and equimolar dose of compounds, 6 hr after treatment; for effect on serum testosterone level (in words): rats, 6 hr post dose, compared to control
Description: Animals (Sprague Dawley male rats weighing 150-200 g) were divided into 3 groups; vehicle (control), Finasteride (standard), treated (test sample) and each group consist of 5 animals. Sprague Dawley rats were treated intraperitoneally with Finasteride 40 mg/kg and equimolar dose of compounds. After 6 hr of treatment, blood was withdrawn by cardiac puncture under diethyl ether anesthesia and serum was separated from cells by centrifugation. Plasma testosterone values were obtained by ELISA plate reader at […] and are given in ng/ml.
The aliquots of 50 μl of each of standards, control and unknown (serum samples) were added to Testosterone Antibody coated wells. 100 μl of HRP-testosterone conjugate was added to all the wells and the plates were shaken gently on a shaker for proper mixing of the reagents. Following 4 hr of incubation at 37° C., the incubation mixture was removed. The wells were washed with phosphate buffer for 5-6 times (200 μl each time), followed by addition of 100 μl of TMB/H2O2 substrate in each of the wells. The plates were further incubated at 37° C. for 20 minutes. At the end of incubation reaction was stopped by using 100 μl of 0.5 M H2SO4 as stopping reagent. The absorbance of each well was read on Elisa plate reader at 450 nm [Rassaie, M. J.; Kumari, G. L.; Pandey, P. K.; Gupta, N.; Kochupillai, N.; Grover, P. K. Steroids 1992, 57, 288 and Hosoda, H.; Yoshida, H.; Sakai, Y.; Miyairi, S.; Nambara, T. Chem. Pharm. Bull. 1980, 28, 3035]
Intact male rats (Sprague Dawley, 200-250 g) were used in the designed study in which various compounds were compared for in vivo 5α-reductase inhibitory potency, as judged by the their ability to attenuate the conversion of testosterone into dihydrotestosterone (DHT). […] The procedure measure T equally well, and method met all the requirement of precision, accuracy, sensitivity and selectivity.

[2] = In vitro cytotoxicity using mouse macrophages (acute toxicity), MTT assay; assay type: cell-based; conditions: both sexes, Balb C; mouse macrophages, from linear equation of MTT data; read-out: LC50 (concentration lethal to 50% population of cells)
Description: (§1) All steroids were dissolved in ethanol and diluted to appropriate concentration: 0.01, 0.5, 1.0, 2.0, 5.0 μg/ml from the two stock solution of 1 mg/ml and […]. Stocks were maintained at room temperature.
(§2) […] Approximately 1 ml of Phosphate buffer saline preincubated at 37° C. was injected into cavity. The abdomen was lavaged for 10 min and fluid along with macrophages were taken out using a syringe into polypropylene tube. The phosphate solution was spun at 800 rpm for 5-10 min and cells were resuspended in 1 ml RPMI media. Cell number was counted using haemocytometer.
(§3) Cells (mouse macrophages) were plated at a density of 5×10^3 cells/well in 96 plate at 37° C. in 5% CO2. Cells were exposed in graded concentration of compounds at designated various concentration. Each concentration was tested in triplicate wells. After 48 hr fresh MTT 20 μl (1 mg/ml) was added directly to all the wells and culture was incubated for 4 hr at 37° C. During this incubation, MTT was converted into a water insoluble formazan complex by metabolic activity of viable cells. Formazan crystal were taken and dissolved in 100 μl of DMSO, which give light pink colour. The absorbance of each well was read on Elisa plate reader (Merck) at 570 nm. The spectrometer was calibrated to zero absorbance using culture medium without cells. The relative cell viability (%) related to control well containing cell culture medium without drug was calculated by [A]test/[A]control×100. % Cell Viability=[A]test/[A]control×100 [A]test=absorbance test sample [A]control=absorbance control sample Results: LC50: Concentration of the Compound in μg/ml (μm), Lethal to 50% Population of Cells.
(§4) The assay quantifies the viable cells, after […] incubation of cells with five different concentrations.

[3] = tested on: mouse macrophages (Balb C); assay: as above; assay type: cell-based; conditions: for toxicity to mouse macrophages (in words): 0.01-5.0 μg/ml
Description: as §1, §2, §3, §4

[4] = both, Balb C, mouse, 48 h, 0.01 μg/ml
[5] = both, Balb C, mouse, 48 h, 0.5 μg/ml
[6] = both, Balb C, mouse, 48 h, 1 μg/ml
[7] = both, Balb C, mouse, 48 h, 2 μg/ml
[8] = both, Balb C, mouse, 48 h, 5 μg/ml

Compound	% growth inhibition (mean ± SEM) ([1]; 5.0 μg/ml)	antiproliferative activity (in words) [1]	inhibition at 0.01 µg/mL ([1]; 0.01 μg/ml)	inhibition at 0.5 µg/mL ([1]; 0.5 μg/ml)	inhibition at 1 µg/mL ([1]; 1.0 μg/ml)	inhibition at 2 µg/mL ([1]; 2.0 μg/ml)	inhibition at 5 µg/mL ([1]; 5.0 μg/ml)	Serum levels of Testosterone, T (5α-reductase)	effect on serum testosterone level (in words) (5α-reductase)	CC50 at 48 h [2]	% viable Cells (mean ± SEM) [3, 4]	% viable Cells (mean ± SEM) [3, 5]	% viable Cells (mean ± SEM) [3, 6]	% viable Cells (mean ± SEM) [3, 7]	% viable Cells (mean ± SEM) [3, 8]	% viable Cells (mean ± SEM) ([3]; mouse macrophages, 0.01 μg/ml)	% viable Cells (mean ± SEM) ([3]; mouse macrophages, 0.5 μg/ml)	% viable Cells (mean ± SEM) ([3]; mouse macrophages, 1.0 μg/ml)	% viable Cells (mean ± SEM) ([3]; mouse macrophages, 2.0 μg/ml)	% viable Cells (mean ± SEM) ([3]; mouse macrophages, 5.0 μg/ml)	other results
C[C@]12CC[C@H](OC(=O)c3ccc(N)cc3)CC1=CC[C@@H]1[C@@H]2CC[C@]2(C)C(=NO)CC[C@@H]12 [Compound 14, 17-oximino-5-androsten-3β-yl 4-aminobenzoate]	91.02 ± 1.25%	more potent than the reference Finasteride	71.8 ± 4.24%	62.1 ± 11.4%	79.5 ± 7.76%	83.9 ± 6.7%	> 90%	1.19 ng/mL	increased activity	29.4 µM	85.75 ± 0.28%	77.69 ± 0.38%	76.80 ± 0.23%	75.82 ± 0.33%	72.82 ± 0.28%						
C[C@]12CC[C@H](O)CC1=CC[C@@H]1[C@@H]2CC[C@]2(C)C(=NO)CC[C@@H]12 [Parent Compound 9, 17-oximino-5-androsten-3β-ol]	Ni^a	not shown any significant inhibitory effect on cell proliferation; also recorded: not shown significant antiproliferative activity																			% growth inhibition (mean ± SEM) ([1]; 0.01 μg/ml): Ni^a; % growth inhibition (mean ± SEM) ([1]; 0.5 μg/ml): Ni^a; % growth inhibition (mean ± SEM) ([1]; 1.0 μg/ml): Ni^a; % growth inhibition (mean ± SEM) ([1]; 2.0 μg/ml): Ni^a
C[C@]12CC[C@H](OC(=O)c3ccc([N+](=O)[O-])cc3)CC1=CC[C@@H]1[C@@H]2CC[C@]2(C)C(=NO)CC[C@@H]12 [Compound 11, 17-oximino-5-androsten-3β-yl 4-nitrobenzoate]	81.53 ± 1.79%	relatively less activity than above compounds but still better than Finasteride	41.5 ± 0.71%	60.5 ± 4.9%	67.3 ± 3.7%	74 ± 0.77%	81 to 84%	1.01 ng/mL	loss of activity	19.5 µM	88.79 ± 0.19%	86.50 ± 0.107%	76.74 ± 0.107%	76.30 ± 0.46%	75.85 ± 0.259%						
Cc1ccc(C(=O)O[C@H]2CC[C@@]3(C)C(=CC[C@@H]4[C@@H]3CC[C@]3(C)C(=NO)CC[C@@H]43)C2)cc1 [Compound 12, 17-oximino-5-androsten-3β-yl 4-methylbenzoate]	92.94 ± 0.13%	more potent than the reference Finasteride	42.6 ± 2.21%	63 ± 4.78%	85 ± 3.99%	89.5 ± 0.96%	> 90%	1.16 ng/mL	increased activity	22 µM	79.39 ± 0.77%	77.46 ± 0.75%	73.03 ± 0.36%	69.10 ± 0.84%	65.26 ± 2.79%						
C[C@]12CC[C@H](OC(=O)COc3ccccc3)CC1=CC[C@@H]1[C@@H]2CC[C@]2(C)C(=NO)CC[C@@H]12 [Compound 16, 17-oximino-5-androsten-3β-yl phenoxyacetate]			33.6 ± 7.66%	24.2 ± 6.37%	36.2 ± 9.85%	76.5 ± 5.58%	87.8 ± 1.11%	0.85 ng/mL	Significant increase in level of serum testosterone level	89 µM						80.79 ± 2.30%	78.32 ± 0.89%	77.04 ± 0.23%	77.31 ± 0.37%	77.37 ± 0.16%	toxicity to mouse macrophages (in words) ([3]; mouse macrophages): non toxic to mouse macrophages
C[C@]12CC[C@H](OC(=O)c3ccccc3)CC1=CC[C@@H]1[C@@H]2CC[C@]2(C)C(=NO)CC[C@@H]12 [Compound 13, 17-oximino-5-androsten-3β-yl benzoate]	91.10 ± 2.10%	more potent than the reference Finasteride	47 ± 1.67%	48.9 ± 1.66%	67.6 ± 1.62%	85.9 ± 4.08%	> 90%	1.05 ± 0.08 ng/mL and 1.05 ng/mL		89.4 µM						87.71 ± 0.29%	84.74 ± 0.27%	83.61 ± 0.20%	83.85 ± 0.28%	82.99 ± 0.36%	toxicity to mouse macrophages (in words) ([3]; mouse macrophages): non toxic to mouse macrophages
